SMILES strings stand for the structures.

This passage reports IC50 results from BindingDB's records for doi:10.7270/Q2H70D5W (University of Pittsburgh, 2007).

The assay has as its target Gag-Pol polyprotein (Human immunodeficiency virus type 1 group M subtype B (isolate HXB2), UniProt P04585). Briefly: concentration-response of HIV-1 RNase H blockers – biochemical, probe assessment, dose response (AID 652). The following applies: pH 8; 23 °C.
By IC50 is commonly meant the concentration that inhibits the measured activity by half. A high value points to weaker potency in that assay. As to `CCOC(=O)c1c(N)sc2c1CCC1C(=O)N(C3CCCCC3)C(=O)C21` (centres undefined) [2-amino-7-cyclohexyl-6,8-diketo-4,5,5a,8a-tetrahydrothien[2,3-e]isoindole-3-carboxylic acid ethyl ester], the 50% inhibitory concentration (IC50) was determined as 4.84 µM.
Then `C=CCOC(=O)C1=C(C)N=C(SCC(=O)Nc2ccc(C)c(Cl)c2)C(C#N)C1c1ccco1` (centres undefined) [prop-2-enyl 6-[2-(3-chloro-4-methylanilino)-2-oxoethyl]sulfanyl-5-cyano-4-(furan-2-yl)-2-methyl-1,4-dihydropyridine-3-carboxylate], with 4.25 µM; and `CCOC(=O)c1sc(NC(=O)CSc2nnc(-c3ccccc3)[nH]2)c(C#N)c1C` [ethyl 4-cyano-3-methyl-5-[[2-[(5-phenyl-1H-1,2,4-triazol-3-yl)sulfanyl]acetyl]amino]thiophene-2-carboxylate], with 0.67 µM.
As for `COc1cccc(OCC(=O)Nc2c(C(=O)Nc3ccc(OC)cc3OC)oc3ccccc23)c1` [MLS000093002], the half-maximal inhibitory concentration (IC50) was 1.77 µM.
The same measure for `O=S(=O)(c1ccc(S(=O)(=O)N2CCN(C/C=C/c3ccccc3)CC2)cc1)N1CCCC1` [1-[(E)-3-phenylprop-2-enyl]-4-(4-pyrrolidin-1-ylsulfonylphenyl)sulfonyl-piperazine]: 12.2 µM; for `COc1ccc(C2C(C(C)=O)=C(C)N=c3sc(=Cc4ccc5c(c4)OCO5)c(=O)n32)cc1` (centres undefined) [SMR000020852]: 7.02 µM.
Then `CC(C)(C)c1ccc(-c2nnc3sc(-c4ccncc4)nn23)cc1` [3-(4-tert-butylphenyl)-6-(4-pyridinyl)[1,2,4]triazolo[3,4-b][1,3,4]thiadiazole], with 6.18 µM; and `N#Cc1c(NC(=O)CN2CCN(S(=O)(=O)c3ccc4c(c3)OCCO4)CC2)sc2c1CCC2` [MLS000053165], with 3.48 µM.
Take `COc1cc(C2CC(=O)N3CN(c4ccccc4C)CSC3=C2C#N)cc(OC)c1OC` (centres undefined) [3-(2-methylphenyl)-6-oxidanylidene-8-(3,4,5-trimethoxyphenyl)-2,4,7,8-tetrahydropyrido[2,1-b][1,3,5]thiadiazine-9-carbonitrile]: it took 4.1 µM to reach half-maximal inhibition (IC50).
Then `O=C(c1ccc2c3c(cccc13)C(=O)N(O)C2=O)N1CCCCC1` [2-hydroxy-6-(piperidine-1-carbonyl)benzo[de]isoquinoline-1,3-dione], with 4.19 µM; and `COc1ccccc1CNC(=O)c1cc2c(=O)n(C)c3ccccc3c2n1C` [4-keto-1,5-dimethyl-N-o-anisyl-pyrrolo[3,2-c]quinoline-2-carboxamide], with 24.7 µM.
`c1ccc2c(c1)OCC(c1nnc3sc(-c4ccc5c(c4)OCO5)nn13)O2` (centres undefined) [6-(1,3-benzodioxol-5-yl)-3-(2,3-dihydro-1,4-benzodioxin-3-yl)-[1,2,4]triazolo[3,4-b][1,3,4]thiadiazole] came in with an IC50 of 1.46 µM.
Compound `CC(C)CNC(=O)c1c(N)n(N=Cc2ccccn2)c2nc3ccccc3nc12` [2-amino-N-(2-methylpropyl)-1-(2-pyridinylmethylideneamino)-3-pyrrolo[3,2-b]quinoxalinecarboxamide] showed a half-maximal inhibitory concentration (IC50) of 9.34 µM.
Take `Nc1c(S(=O)(=O)c2cccc(Cl)c2)c2c(n1N=CC1=CC(=O)C(=O)C=C1)Nc1ccccc1N2` [4-[[2-azanyl-3-(3-chlorophenyl)sulfonyl-4,9-dihydropyrrolo[3,2-b]quinoxalin-1-yl]iminomethyl]cyclohexa-3,5-diene-1,2-dione]: the half-inhibitory concentration (IC50) was 0.266 µM.
With `Cc1sc(-n2c(C)cc(C=Nn3cnnc3)c2C)c(C#N)c1C`, the IC50 was determined as 2.22 µM.
The same measure for `C=CCn1c(=O)c(C(=O)Nc2nnc(C)s2)c(O)c2ccccc21` [1-allyl-2-hydroxy-4-keto-N-(5-methyl-1,3,4-thiadiazol-2-yl)quinoline-3-carboxamide]: 16.8 µM; for `CCC1CC2(C)NC(=O)c3c(sc4c3CC(C)(C)OC4)N2C1=O` (centres undefined) [MLS000077638]: 2.88 µM.
With `CCOc1ccc(S(=O)(=O)Nc2cc(Sc3nnc[nH]3)c3oc(=O)sc3c2)cc1` [4-ethoxy-N-[2-oxo-7-(1H-1,2,4-triazol-5-ylsulfanyl)-1,3-benzoxathiol-5-yl]benzenesulfonamide], it took 2.53 µM to reach half-maximal inhibition (IC50).
Then `c1ccc(-c2ccc(-c3ccccn3)nn2)nc1` [3,6-bis(2-pyridinyl)pyridazine], with 15.4 µM; and `O=c1[nH]c(=O)n(-c2ccc(F)cc2)c(O)c1C=Nc1ccccc1N1CCCC1` [(5E)-1-(4-fluorophenyl)-5-[[2-(1-pyrrolidinyl)anilino]methylidene]-1,3-diazinane-2,4,6-trione], with 23.1 µM; and `Cc1cc(NC(=O)CSc2nc3cc4c(cc3c(=O)n2CCc2ccccc2)OCO4)no1` [2-[(8-keto-7-phenethyl-[1,3]dioxolo[4,5-g]quinazolin-6-yl)thio]-N-(5-methylisoxazol-3-yl)acetamide], with 4.79 µM.
The compound `CCCSc1nc2c(cnn2-c2ccc(Cl)cc2)c(=O)[nH]1` [MLS000091828] showed an IC50 of 9.64 µM.
Then `OCCN1CCN(C(=S)c2ccc(Cl)c(Cl)c2)CC1` [(3,4-dichlorophenyl)-[4-(2-hydroxyethyl)-1-piperazinyl]methanethione], with 3.2 µM.
Then `CCN1CCN(c2nc(C)nc3c2sc(=S)n3C)CC1` [7-(4-ethyl-1-piperazinyl)-3,5-dimethyl-2-thiazolo[4,5-d]pyrimidinethione], with 2.94 µM.
`O=C(NC1CCCCC1)c1sc(=S)n2c1[nH]c(=O)c1ccccc12` [SMR000030293] yielded a 50% inhibitory concentration (IC50) of 0.645 µM.
The same measure for `Cc1ccccc1NC(=O)c1c(O)n2c3c(cccc3c1=O)CC2` [6-Hydroxy-4-oxo-1,2-dihydro-4H-pyrrolo[3,2,1-ij]quinoline-5-carboxylic acid o-tolylamide]: 21.7 µM; for `CCC(C)c1ccc2oc(-c3ccc(NC(=O)c4nnc[nH]4)cc3)nc2c1` (centres undefined) [N-[4-(5-sec-butyl-1,3-benzoxazol-2-yl)phenyl]-1H-1,2,4-triazole-3-carboxamide]: 6.07 µM; for `C=CCNC(=O)c1c(N)n(-c2ccc3c(c2)OCO3)c2nc3ccccc3nc12` [2-amino-1-(1,3-benzodioxol-5-yl)-N-prop-2-enyl-3-pyrrolo[3,2-b]quinoxalinecarboxamide]: 32.7 µM.
Then `COc1ccc(-c2nsc(SCC(=O)Nc3cc(C)on3)n2)cc1` [2-[[3-(4-methoxyphenyl)-1,2,4-thiadiazol-5-yl]sulfanyl]-N-(5-methyl-1,2-oxazol-3-yl)acetamide], with 3.01 µM.
Then `Nc1nnc(CSCc2ccc(F)cc2)s1` [5-[(4-fluorophenyl)methylsulfanylmethyl]-1,3,4-thiadiazol-2-amine], with greater than 50 µM; and `COc1ccc(N2CCN(Cc3cc(=O)oc4cc(-c5ccccc5)c(O)cc34)CC2)cc1` [4-[[4-(4-methoxyphenyl)piperazin-1-yl]methyl]-6-oxidanyl-7-phenyl-chromen-2-one], with 3.86 µM; and `O=C(Cn1c(=O)oc2cc(S(=O)(=O)N3CCCC3)ccc21)NC1CCCc2ccccc21` (centres undefined) [2-(2-keto-6-pyrrolidinosulfonyl-1,3-benzoxazol-3-yl)-N-tetralin-1-yl-acetamide], with 19.8 µM.
The compound `CCOC(=O)c1sc(=S)n2c1[nH]c(=O)c1ccc(C(=O)OC)cc12` [MLS000094734] gave an IC50 of 0.648 µM.
As to `O=c1c(=Cc2cccn2-c2ccccc2)sc2nc3ccccc3n12` [2-[(1-phenyl-2-pyrrolyl)methylidene]-1-thiazolo[3,2-a]benzimidazolone], half-maximal inhibition (IC50) required 2.83 µM.
